What was measured:
[1] = tested on: Spodoptera exigua; settings: compared with Heliothis; cited from earlier work
[2] = target: T1, glucocorticoid/Heliothis ecdysone chimeric receptor (UniProt O18473+P04150); assay: CHO cells transfected with pcDNA3GRHEcR and pSWGRE4 (β-galactosidase reporter); type: cell-based, Heliothis virescens; design: expressed in transfected cells; host or cells: CHO-K1 (A7); settings: co-transformed CHO cells (FIG. 27)
T1 sequence (P04150+O18473 with tags, fused parts or gaps): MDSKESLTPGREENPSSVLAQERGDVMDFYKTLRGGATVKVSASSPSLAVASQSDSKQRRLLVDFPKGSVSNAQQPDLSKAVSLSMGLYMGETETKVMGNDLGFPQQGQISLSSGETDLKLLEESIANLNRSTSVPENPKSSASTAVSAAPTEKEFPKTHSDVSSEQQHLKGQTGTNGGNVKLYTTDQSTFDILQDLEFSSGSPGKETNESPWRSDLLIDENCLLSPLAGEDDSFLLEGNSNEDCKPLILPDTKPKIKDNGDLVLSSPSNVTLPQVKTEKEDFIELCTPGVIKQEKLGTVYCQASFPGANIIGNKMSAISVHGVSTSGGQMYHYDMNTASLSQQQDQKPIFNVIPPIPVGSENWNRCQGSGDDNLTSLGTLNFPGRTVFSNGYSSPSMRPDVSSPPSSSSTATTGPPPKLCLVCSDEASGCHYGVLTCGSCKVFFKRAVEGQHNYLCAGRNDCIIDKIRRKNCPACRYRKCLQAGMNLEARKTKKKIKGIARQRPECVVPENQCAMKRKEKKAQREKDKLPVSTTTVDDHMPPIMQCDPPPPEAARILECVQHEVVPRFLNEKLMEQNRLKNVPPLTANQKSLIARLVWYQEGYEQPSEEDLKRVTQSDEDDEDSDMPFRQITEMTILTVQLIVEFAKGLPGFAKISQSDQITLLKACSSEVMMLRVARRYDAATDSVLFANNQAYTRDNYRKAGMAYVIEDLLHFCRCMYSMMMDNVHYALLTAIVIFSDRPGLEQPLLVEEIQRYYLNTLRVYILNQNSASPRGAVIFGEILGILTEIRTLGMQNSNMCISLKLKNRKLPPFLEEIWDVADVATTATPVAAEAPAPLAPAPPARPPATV
Procedure: Transfections of mammalian cell lines (CHO-K1 Chinese hamster ovary) ATCC number CCL61 or cos-1 (Monkey cell line) were performed using either calcium phosphate precipitation (Gorman, Chapter 6 of “DNA cloning: a practical approach. Vol 2 D. M. Glover ed/.(1985) IRL Press, Oxford) or using LipofectAMINE (Gibco BRL Cat. No. 18324–012, following manufacturer's instructions). […] 293 cells were transfected using analogous methods.
The mammalian expression vector used in this experiment was pcDNA3 (Invitrogen). The GRHEcR 2.7 kb BamHI DNA fragment (isolated from pMF6GRHEcR) was introduced into the pcDNA3 BamHI vector. The recombinants were oriented by restriction enzyme mapping. The DNA sequence of the junctions was determined to ensure correct orientation and insertion (pcDNA3GRHEcR, FIG. 25).
The reporter plasmid for mammalian cell system was produced by taking pSWBGAL plasmid and replacing the CRESW SpeI/ClaI fragment for a synthetic 105 bp DNA fragment containing 4 copies of the glucocorticoid response element (GRE) and flanked by SpeI at the 5′ end and AflII at the 3′ end.
The two oligonucleotides were purified annealed and ligated to pSWBGAL SpeI/AflII to produce pSWGRE4 (FIG. 26).
A screen was carried out using CHO cells transiently transfected with both pSWGRE4 (reporter) and pcDNA3GRHEcR (effector) constructs. […]

## CCc1ccc(C(=O)NN(C(=O)c2cc(C)cc(C)c2)C(C)(C)C)cc1 [RH5992, 3,5-dimethylbenzoic acid 1-1(1,1-dimethylethyl)-2(4-ethylbenzoyl)hydrazide]
[1]
  sensitivity of species: more sensitive to RH5992 than Heliothis
[2]
  chemical induced reporter gene activity: significant chemical induced reporter gene activity

From US7183061B2, “Method of expressing Heliothis ecdysone receptor fusion protein” (Syngenta Limited, priority 1996, dated 2007)
